The record followed here is patent US12697336B2, “RUC-4 formulations” (CeleCor Therapeutics, Inc., priority 2021, dated 2026).

Series [1] can be described thus: Example 1 formulation stability test: overnight (~18 hours) storage at −20° C., 5° C. and 20° C., visual observation. The class given is physicochemical. To be noted: pH 4.75. As to the method:
Formulation solutions as described in Table 3 below were prepared and divided in to three equal portions that were stored overnight (~18 hours) at −20° C., 5° C. and 20° C., respectively. The formulations were observed, and the characteristics reported in Table 3 were noted, immediately for RT, immediately upon removing 5° C. formulations from refrigerator, and upon thawing of −20° C. formulations. Clear solutions of Compound (1) were obtained at pH 4.75 at concentrations of ≤17.5 mg/mL.

Series [2] is described as follows: Solubility of Compound (1) in acetic acid. The class given is physicochemical. Conditions: organic solvent or mixture, read-out: Solubility in acetic acid (obtainable solution concentration). As to the method: In particular, solutions of greater than 300 mg/mL are obtainable.

Turning to `NCC(=O)Nc1cncc(-c2nn3c(=O)cc(N4CCNCC4)nc3s2)c1` [Compound (1)], in series [1], the “Concentration at which clear solutions were obtained” value is ≤ 17500 µg/mL. Further, the solubility in series [2] was > 300 mg/mL.
